According to patent US20220305121A1, “N-ARYL SULFONAMIDE DERIVATIVES AS VACCINE ADJUVANT” (The Regents of the University of California, priority 2019, published 2022):
pEC50: −log10 of the molar value. “Also recorded” adds a separate entry of the source.

Tests used:
Assay type in all cases: cell-based
NF-κB = assay: Measurement of NF-κB activation using THP1-Blue NF-κB cells (SEAP reporter, LPS as primary stimulus); conditions: for activity at 5 µM / NF-κB % Activation: compound 5 μM + LPS, 20 hour incubation, two point normalized: compound 1 + LPS = 200%, LPS = 100%, mean
In short: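 THP1-Blue NF-κB cells (10^5/well, RPMI + 10% FBS) were co-treated with LPS 10 μg/mL and compound 5 μM (final, […]) for 20 h. Supernatant SEAP was read by QuantiBlue colorimetry at 630 nm. Two-point normalization set LPS alone to 100% and compound 1+LPS to 200%.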

ISRE = assay: Measurement of ISRE activity in ISRE-bla THP-1 cells (FRET, IFN-α as primary stimulus); conditions: for activity at 5 µM / ISRE % Activation: compound 5 μM + IFN-α 100 U/mL, 16 hours, two point normalized: compound 1 + IFN-α = 200%, IFN-α = 100%, mean; for activity at 5 µM: read-out: ISRE % Activation
In short: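 Cells at 5×10^4/well in RPMI with 10% dialyzed FBS, treated with compound at 5 μM (0.05% DMSO) plus IFN-α at 100 U/mL (final) for 16 h. CCF4-AM substrate added for 3 h at room temperature. Background-subtracted 465/535 nm emission ratio, 2-point normalized: IFN-α alone 100%, compound 1+IFN-α 200%.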

THP-1 cells = assay: Cell viability assay (MTT); conditions: for MTT % Viability: compound 5 μM, 18 hours incubation, normalized to DMSO as 100%, mean
In short: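 Cells at 10^5/well in RPMI with 10% FBS were exposed to compound at 5 μM final (0.05% DMSO) for 18 h. MTT (0.5 mg/mL) then added for 4-6 h, cells lysed overnight in SDS/HCl, absorbance read at 570 nm against 650 nm reference.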

NF-κB and ISRE = NF-κB and ISRE reporter assays (primary screens), statements in words for both assays; conditions: with LPS or IFN-α as primary stimulus, compared to compound 1
Procedure: THP1-Blue™ NF-κB cells were plated in 96-well plates at 10^5 cells/well in 100 μl RPMI supplemented with 10% fetal bovine serum (FBS, Omega Scientific, Inc., Tarzana, Calif.), 100 U/mL penicillin, 100 μg/ml streptomycin (Thermo Fisher Scientific) and Normocin (Invivogen). LPS was prepared in assay medium at a concentration of 20 μg/mL. Tested compounds were dissolved in DMSO at 1 mM as a stock solution and were further diluted in the LPS solution to a final concentration of 10 μM. 100 μL of this solution was then transferred to the plated cells to obtain a final concentration of LPS at 10 μg/mL and compound at 5 μM ([…]). The culture supernatants were harvested after a 20 hour incubation period, SEAP activity in the culture supernatants was determined by a colorimetric assay using QuantiBlue (Invivogen). Plate absorbance was read at 630 nm using a Tecan Infinite M200 plate reader (Männedorf, Switzerland). The SEAP concentration was directly proportional to NF-κB activity, which was 2-point normalized to yield activity of compound 1+LPS as 200% and activity for LPS as 100%.
ISRE-bla THP-1 cells were plated in 96-well plates at 5×10^4 cells/well in 50 μl RPMI supplemented with 10% dialyzed FBS (Atlanta Biologicals, Inc., GA), 0.1 mM nonessential amino acids, 1 mM sodium pyruvate, 100 U/mL penicillin and 100 μg/ml streptomycin. Type I IFN-α (R&D Systems, #11200-2) solution was prepared in assay medium at a concentration of 200 U/mL Tested compounds were dissolved in DMSO at 1 mM and were further diluted in the IFN-α solution to a final concentration of 10 μM. 50 μL of this solution was then transferred to the plated cells to obtain a final concentration of IFN-α at 100 U/mL and compound at 5 μM ([…]), The cells were incubated for 16 hours, after which 20 μL of 6×LiveBLAzer™ FRET B/G Substrate (CCF4-AM) mixture (prepared according to the manufacturer's instructions) was added to each well, Plates were incubated at room temperature in the dark for 3 hours. Fluorescence was measured on a Tecan Infinite M200 plate reader at an excitation wavelength of 405 nm, and emission wavelengths of 465 nm and 535 nm. Background values (cell free wells at the same fluorescence wavelength) were subtracted from the raw fluorescence intensity values and the emission ratios were calculated as the ratio of background subtracted fluorescence intensities at 465 nm to background subtracted fluorescence intensities at 535 nm. The ISRE activity values for these compounds were 2-point normalized to yield activity of compound 1+IFN-α as 200% and activity for IFN-α as 100%.
Measurement of NF-κB Activation Using THP1-Blue NF-κB Cells. THP1-Blue NF-κB cells were plated in 96-well plates at 10^5 cells/well in 100 μL of RPMI supplemented with 10% fetal bovine serum (FBS, Omega Scientific, Inc., Tarzana, Calif.), 100 U/mL penicillin, 100 μg/mL streptomycin (Thermo Fisher Scientific), and Normocin (Invivogen). LPS was prepared in assay medium at a concentration of 20 μg/mL. Tested compounds were dissolved in DMSO at 1 mM as a stock solution and were further diluted in the LPS solution to a final concentration of 10 μM. 100 μL of this solution was then transferred to the plated cells to obtain a final concentration of LPS at 10 μg/mL and compound at 5 μM ([…]). The culture supernatants were harvested after a 20 hours incubation period. SEAP activity in the culture supernatants was determined by a colorimetric assay using QuantiBlue (Invivogen). Plate absorbance was read at 630 nm using a Tecan Infinite M200 plate reader (Mannedorf, Switzerland). The SEAP concentration was directly proportional to NF-κB activity, which was two-point normalized to yield activity of compound 1+LPS as 200% and activity for LPS as 100%.
Measurement of ISRE Activity in ISRE-bla THP-1 Cells. […]

Row | Compound | activity at 5 µM (NF-κB) [%] | activity at 5 µM (ISRE; Homo sapiens, THP-1) [%] | MTT % Viability (THP-1 cells) [%] | activity in NF-κB and ISRE assays (in words) (NF-κB and ISRE) | toxicity in MTT assays (in words) (THP-1 cells; 5 μM) | NF-κB % Activation (NF-κB) [%] | ISRE % Activation (ISRE) [%] | NF-κB activity (in words) (NF-κB; with LPS) | ISRE activity (in words) (ISRE; with IFN-α) | pEC50 (NF-κB; dose response in the presence of LPS) | pEC50 (ISRE; Homo sapiens, THP-1, dose response in the presence of IFN-α) | activity in NF-κB and ISRE assays (in words) (NF-κB and ISRE; hydrochloride)
1 | C#CCOCCOCCOCCN(c1cc(OC)c(Cl)cc1OC)S(=O)(=O)c1ccc(OCC)cc1 [Compound 45, N-(4-chloro-2,5-dimethoxyphenyl)-4-ethoxy-N-(2-(2-(2-(prop-2-yn-1-yloxy)ethoxy)ethoxy)ethyl)benzenesulfonamide] | 107 | 130 | 73.7 | too long to retain activity |  |  |  |  |  |  |  | 
2 | CCOc1ccc(S(=O)(=O)N(Cc2ccccc2)c2cc(OC)c(Cl)cc2OC)cc1 [Compound 46, N-benzyl-N-(4-chloro-2,5-dimethoxyphenyl)-4-ethoxybenzenesulfonamide] | 181 | 159 | 71.7 | potent analogs |  |  |  |  |  |  |  | 
3 | CCOc1ccc(S(=O)(=O)N(CCc2ccccc2)c2cc(OC)c(Cl)cc2OC)cc1 [Compound 47, N-(4-chloro-2,5-dimethoxyphenyl)-4-ethoxy-N-phenethylbenzenesulfonamide] | 131 | 141 | 44 | potent analogs | somewhat higher toxicity |  |  |  |  |  |  | 
4 | CCOC(=O)CN(c1cc(OC)c(Cl)cc1OC)S(=O)(=O)c1ccc(OCC)cc1 [Compound 49, Ethyl N-(4-chloro-2,5-dimethoxyphenyl)-N-((4-ethoxyphenyl)sulfonyl)glycinate] | 202 | 184 | 81.4 | retained dual NF-κB and ISRE activities |  |  |  |  |  |  |  | 
5 | CCOc1ccc(S(=O)(=O)N(CCCO)c2cc(OC)c(Cl)cc2OC)cc1 [Compound 51, N-(4-chloro-2,5-dimethoxyphenyl)-4-ethoxy-N-(3-hydroxypropyl) benzenesulfonamide] |  |  | 68.5 | retained activity in both the assays |  | 219 | 178 |  |  |  |  | 
6 | CCOc1ccc(S(=O)(=O)N(CCCNC(=O)OC(C)(C)C)c2cc(OC)c(Cl)cc2OC)cc1 [Compound 52, tert-Butyl (3-((N-(4-Chloro-2,5-dimethoxyphenyl)-4-ethoxyphenyl)sulfonamido)propyl)carbamate] |  |  | 75.6 | reduction in activity |  | 134 | 140 |  |  |  |  | 
7 | CCNC(=O)CCCN(c1cc(OC)c(Cl)cc1OC)S(=O)(=O)c1ccc(OCC)cc1 [Compound 54, 4-((N-(4-chloro-2,5-dimethoxyphenyl)-4-ethoxyphenyl)sulfonamido)-N-ethylbutanamide] |  |  | 78.2 | retained activity |  | 206 | 137 | retaining the NF-κB activity | reduction in ISRE activity |  |  | 
8 | CCOc1ccc(S(=O)(=O)N(CCCN)c2cc(OC)c(Cl)cc2OC)cc1.Cl [Compound 55, N-(3-aminopropyl)-N-(4-chloro-2,5-dimethoxyphenyl)-4-ethoxybenzenesulfonamide hydrochloride] | 189 | 182 | 71.0 |  |  |  |  |  |  | 5.48 | 5.52 | recovered; also recorded: less potent than compound 1; also recorded: retained activity even though slightly attenuated
9 | CCOc1ccc(S(=O)(=O)N(CCCNC(=O)CCCCCNC(=O)c2ccc3c(c2)C(=O)OC32c3ccc(O)cc3Oc3cc(O)ccc32)c2cc(OC)c(Cl)cc2OC)cc1 [Compound 56, N-(6-((3-((N-(4-chloro-2,5-dimethoxyphenyl)-4-ethoxyphenyl)sulfonamido)propyl)amino)-6-oxohexyl)-3′,6′-dihydroxy-3-oxo-3H-spiro[isobenzofuran-1,9′-xanthene]-5-carboxamide] |  |  | 98.1 | completely inactive |  | 100 | 96 |  |  |  |  | 
10 | CCOc1ccc(S(=O)(=O)N(CCCNC(=O)CCCC[C@H]2SC[C@H]3NC(=O)N[C@H]32)c2cc(OC)c(Cl)cc2OC)cc1 [Compound 58, N-(3-((N-(4-chloro-2,5-dimethoxyphenyl)-4-ethoxyphenyl)sulfonamido)propyl)-5-((3aR,4R,6aS)-2-oxohexahydro-1H-thieno[3,4-d]imidazol-4-yl)pentanamide] |  |  | 69.6 | equipotent to compound 1 |  | 195 | 175 |  |  |  |  | 
11 | C#CCN(c1cc(OC)c(N=[N+]=[N-])cc1OC)S(=O)(=O)c1ccc(OCC)cc1 [Compound 62, N-(4-azido-2,5-dimethoxyphenyl)-4-ethoxy-N-(prop-2-yn-1-yl) benzenesulfonamide] |  |  | 73.4 | very potent |  | 217 | 182 |  |  |  |  | 
12 | CCOc1ccc(S(=O)(=O)N(CCCNC(=O)CCCC[C@H]2SC[C@H]3NC(=O)N[C@H]32)c2cc(OC)c(N=[N+]=[N-])cc2OC)cc1 [Compound 64, N-(3-((N-(4-azido-2,5-dimethoxyphenyl)-4-ethoxyphenyl)sulfonamido)propyl)-5-((3aR,4R,6aS)-2-oxohexahydro-1H-thieno[3,4-d]imidazol-4-yl) pentanamide] |  |  | 73.8 | relatively weak activity |  | 162 | 140 |  |  |  |  | 
13 | N-(9-(2-carboxy-44(34(N-(4-chloro-2,5-dimethoxyphenyl)-4-ethoxyphenyl)sulfonamido)propyl)carbamoyl)phenyl)-6-(diethylamino)-3H-xanthen-3-ylidene)-N-ethylethanaminium [Compound 57] |  |  | 76.9 | reduced activity compared to compound 1 |  | 111 | 123 |  |  |  |  | 
